# From US6218393A, “Anthranilic acid derivatives as multi drug resistance modulators” (priority 1997, dated 2001)
# Key:
# AR 1.0 cells [1] = assay: Potentiation of doxorubicin toxicity: proliferation assay (sulphorhodamine B); assay type: cell-based, mouse
# Source text: (a) Selected compounds of formula (I) were examined for their ability to potentiate the toxicity of doxorubicin in AR 1.0 cells.
# AR 1.0 cells [2] = assay: Drug accumulation assay: daunorubicin accumulation in AR 1.0 cells; assay type: cell-based; details: Mus musculus, 100% = accumulation with verapamil 100 μM, 1 hr, 37° C.
# In short: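 AR 1.0 is the MDR-resistant subline of EMT6 mouse mammary carcinoma, grown in RPMI 1640 with 10% foetal calf serum and 2 mM glutamine at 37 °C, 5% CO2. Cells were seeded 48 h before the daunorubicin accumulation assay.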
# AR 1.0 cells [3] = assay: Potentiation index with doxorubicin titration; assay type: cell-based, mouse; details: for Potentiation Index at RMA concentration 10 nM: Table C1, RMA 10 nM; for Potentiation Index at RMA concentration 30 nM: Table C1, RMA 30 nM; for Potentiation Index at RMA concentration 50 nM: Table C1, RMA 50 nM; for Potentiation Index at RMA concentration 100 nM: Table C1, RMA 100 nM
# Procedure: The EMT6 mouse mammary carcinoma cell line and the MDR resistant subline AR 1.0 were cultured in RPMI 1640 medium containing 10% foetal calf serum and 2 mM glutamine at 37° C. in 5% CO2. Cells were passaged between 1 in 200 and 1 in 2000 in the case of the parental cell line and between 1 in 20 and 1 in 200 in the case of the MDR resistant subline, after trypsinisation (0.25% trypsin, 0.2 gl^-1, EDTA). […]
# (b) Cells were cultured for four days with a titration of doxorubicin (0.263 nM-17.24 μM) in the presence of a fixed concentration of each compound. Proliferation was quantified as described by Skehen et al, loc cit. The IC50 (concentration required to reduce proliferation to 50% of the untreated controls) for doxorubicin alone and with each compound were derived and used to calculate the potentiation index (PI): [formula]
# [4] = Mus musculus, 96 h, compound alone, four day proliferation, read-out: Compound Toxicity (IC50)
# [5] = with fixed doxorubicin 0.34 μm, four days, 5760 min, read-out: Toxicity with Cytotoxic Agent (IC50)
Structure (SMILES),IC50 (AR 1.0 cells [2]) [nM],IC50 (AR 1.0 cells [1]; [4]) [nM],IC50 (AR 1.0 cells [1]; [5]) [nM],Potentiation Index at RMA concentration 10 nM (AR 1.0 cells [3]),Potentiation Index at RMA concentration 30 nM (AR 1.0 cells [3]),Potentiation Index at RMA concentration 50 nM (AR 1.0 cells [3]),Potentiation Index at RMA concentration 100 nM (AR 1.0 cells [3]),"Potentiation Index at RMA concentration 20 nM (AR 1.0 cells [3]; Table C1, RMA 20 nM)",toxicity of doxorubicin alone to AR 1.0 cells (AR 1.0 cells [1]; fixed concentration 0.34 μm)
"COc1cc2c(cc1OC)CN(CCNC(=O)c1ccccc1NC(=O)c1ccsc1)CC2 [compound 9365, Thiophene-3-carboxylic acid {2-[2-(6,7-dimethoxy-3,4-dihydro-1H-isoquinolin-2-yl)-ethylcarbamoyl]-phenyl}-amide]",2000,42000,800,–,–,–,–,–,–
"COc1cc2c(cc1OC)CN(CCc1ccc(NC(=O)c3ccccc3NC(=O)c3ccccn3)cc1)CC2 [compound 9472, Pyridine-2-carboxylic acid (2-{4-[2-(6,7-dimethoxy-3,4-dihydro-1H-isoquinolin-2-yl)-ethyl]-phenylcarbamoyl}-phenyl)-amide]",500,6500,120,–,–,–,–,–,–
"CCN(CC)c1ccc(C(=O)Nc2ccccc2C(=O)NCCN2CCc3cc(OC)c(OC)cc3C2)cc1 [compound 9310, 2-(4-Diethylamino-benzoylamino)-N-[2-(6,7-dimethoxy-3,4-dihydro-1H-isoquinolin-2-yl)-ethyl]-benzamide]",1200,22000,240,–,–,–,–,–,–
"COc1cc2c(cc1OC)CN(CCNC(=O)c1cc(-c3ccccc3)ccc1NC(=O)c1ccc(C(C)C)cc1)CC2 [compound 9432, 2-(4-Isopropyl-benzoylamino)-N-[2-(6,7-dimethoxy-3,4-dihydro-1H-isoquinolin-2-yl)-ethyl]-5-phenyl-benzamide]",3200,35000,200,–,–,–,–,–,–
"COc1cc2c(cc1OC)CN(CCc1ccc(NC(=O)c3ccccc3NC(=O)c3cccnc3)cc1)CC2 [compound 9482, N-(2-{4-[2-(6,7-Dimethoxy-3,4-dihydro-1H-isoquinolin-2-yl)-ethyl]-phenylcarbamoyl}-phenyl)-nicotinamide]",540,12000,220,–,–,–,–,–,–
COc1cc2c(cc1OC)CN(CCNC(=O)c1ccccc1NC(=O)c1cc3ccccc3[nH]1)CC2 [compound 9367],1000,15000,500,–,–,–,–,–,–
"COc1cc2c(cc1OC)CN(CCNC(=O)c1ccc(N)cc1NC(=O)c1ccc(C(C)C)cc1)CC2 [compound 9435, 2-(4-Isopropyl-benzoylamino)-N-[2-(6,7-dimethoxy-3,4-dihydro-1H-isoquinolin-2-yl)-ethyl]-4-amino-benzamide]",1900,9000,400,–,–,–,–,–,–
"COc1cc2c(cc1OC)CN(CCNC(=O)c1ccccc1NC(=O)c1cc3ccccc3cn1)CC2 [compound 9389, Isoquinoline-3-carboxylic acid {2-[2-(6,7-dimethoxy-3,4-dihydro-1H-isoquinolin-2-yl)-ethylcarbamoyl]-phenyl}-amide]",1800,30000,–,–,–,–,–,–,–
"COc1cc2c(cc1OC)CN(CCNC(=O)c1ccccc1NC(=O)c1ccc([N+](=O)[O-])cc1)CC2 [compound 9381, 2-(4-Nitro-benzoylamino)-N-[2-(6,7-dimethoxy-3,4-dihydro-1H-isoquinolin-2-yl)-ethyl]-benzamide]",3000,50000,1500,–,–,–,–,–,–
"COc1cc2c(cc1OC)CN(CCc1ccc(NC(=O)c3ccccc3NC(=O)c3ccsc3)cc1)CC2 [compound 9492, Thiophene-3-carboxylic acid (2-{4-[2-(6,7-dimethoxy-3,4-dihydro-1H-isoquinolin-2-yl)-ethyl]-phenylcarbamoyl}-phenyl)-amide]",1000,3000,20,–,–,–,–,–,–
"COc1cc2c(cc1OC)CN(CCc1ccc(NC(=O)c3ccccc3NC(=O)c3cnc4ccccc4c3)c(C)c1)CC2 [compound 9650, Quinoline-3-carboxylic acid (2-{4-[2-(6,7-dimethoxy-3,4-dihydro-1H-isoquinolin-2-yl)-ethyl]-2-methyl-phenylcarbamoyl}-phenyl)-amide]",61,–,–,3,3,14,33,–,–
"COc1cc2c(cc1OC)CN(CCc1ccc(NC(=O)c3nccnc3NC(=O)c3cnc4ccccc4c3)cc1)CC2 [compound 9622, Quinoline-3-carboxylic acid (3-{4-[2-(6,7-dimethoxy-3,4-dihydro-1H-isoquinolin-2-yl)-ethyl]-phenylcarbamoyl}-pyrazin-2-yl)-amide]",207,–,–,1.8,15,46,79,8,–
"CN(CCc1ccc(NC(=O)c2ccccc2NC(=O)c2cnc3ccccc3c2)cc1)Cc1ccc(N(C)C)cc1 [compound 9655, Quinoline-3-carboxylic acid [2-(4-{2-[(4-dimethylamino-benzyl)-methyl-amino]-ethyl}-phenylcarbamoyl)-phenyl]-amide]",557,–,–,1.8,13,37,65,–,–
"COc1cccc2c1C(=O)c1c(O)c3c(c(O)c1C2=O)C[C@@](O)(C(=O)CO)C[C@@H]3O[C@H]1C[C@H](N)[C@H](O)[C@H](C)O1 [doxorubicin, reference compound]",–,–,–,–,–,–,–,–,non-toxic

# Second part, led by results:
IC50 (AR 1.0 cells [2]) [nM],Structure (SMILES),IC50 (AR 1.0 cells [1]; [4]) [nM],IC50 (AR 1.0 cells [1]; [5]) [nM],Potentiation Index at RMA concentration 10 nM (AR 1.0 cells [3]),Potentiation Index at RMA concentration 30 nM (AR 1.0 cells [3]),Potentiation Index at RMA concentration 50 nM (AR 1.0 cells [3]),Potentiation Index at RMA concentration 100 nM (AR 1.0 cells [3]),"Potentiation Index at RMA concentration 20 nM (AR 1.0 cells [3]; Table C1, RMA 20 nM)",toxicity of doxorubicin alone to AR 1.0 cells (AR 1.0 cells [1]; fixed concentration 0.34 μm)
930,"CCC(=O)c1cnc(C(=O)Nc2ccccc2C(=O)Nc2ccc(CCN3CCc4cc(OC)c(OC)cc4C3)cc2)cn1 [compound 9569, 5-Propionyl-pyrazine-2-carboxylic acid (2-{4-[2-(6,7-dimethoxy-3,4-dihydro-1H-isoquinolin-2-yl)-ethyl]-phenylcarbamoyl}-phenyl)-amide]",190,8,–,–,–,–,–,–
800,"COc1cc2c(cc1OC)CN(CCc1ccc(NC(=O)c3ccccc3NC(=O)c3ccc4ccccc4n3)cc1)CC2 [compound 9545, Quinoline-2-carboxylic acid (2-{4.-[2-(6,7-dimethoxy-3,4-dihydro-1H-isoquinolin-2-yl)-ethyl]-phenylcarbamoyl}-phenyl)-amide]",1700,–,–,–,–,–,–,–
4900,"COc1cc2c(cc1OC)CN(CCc1ccc(NC(=O)c3ccccc3NC(=O)c3ccc(OC(C)=O)cc3)cc1)CC2 [compound 9548, Acetic acid 4-(2-{4-[2-(6,7-dimethoxy-3,4-dihydro-1H-isoquinolin-2-yl)-ethyl]-phenylcarbamoyl}-phenylcarbamoyl)-phenyl ester]",1800,1000,–,–,–,–,–,–
3000,"COc1cc2c(cc1OC)CN(CCNC(=O)c1ccccc1NC(=O)c1cnc3ccccc3n1)CC2 [compound 9347, Quinoxaline-2-carboxylic acid {2-[2-(6,7-dimethoxy-3,4-dihydro-1H-isoquinolin-2-yl)-ethylcarbamoyl]-phenyl}-amide]",35000,600,–,–,–,–,–,–
1200,"COc1cc2c(cc1OC)CN(CCc1ccc(NC(=O)c3ccccc3NC(=O)c3cccc(OC(C)=O)c3)cc1)CC2 [compound 9540, Acetic acid 3-(2-{4-[2-(6,7-dimethoxy-3,4-dihydro-1H-isoquinolin-2-yl)-ethyl]-phenylcarbamoyl}-phenylcarbamoyl)-phenyl ester]",6200,1000,–,–,–,–,–,–
2000,"COc1cc2c(cc1OC)CN(CCNC(=O)c1ccccc1NC(=O)c1nccc3ccccc13)CC2 [compound 9383, Isoquinoline-1-carboxylic acid {2-[2-(6,7-dimethoxy-3,4-dihydro-1H-isoquinolin-2-yl)-ethylcarbamoyl]-phenyl}-amide]",40000,–,–,–,–,–,–,–
900,"COc1cc2c(cc1OC)CN(CCNC(=O)c1ccccc1NC(=O)c1ccc(Br)cc1)CC2 [compound 9380, 2-(4-Bromo-benzoylamino)-N-[2-(6,7-dimethoxy-3,4-dihydro-1H-isoquinolin-2-yl)-ethyl]-benzamide]",40000,500,–,–,–,–,–,–
431,"COc1cc2c(cc1OC)CN(CCOc1ccc(NC(=O)c3ccccc3NC(=O)c3cnc4ccccc4n3)cc1)CC2 [compound 9632, Quinoxaline-2-carboxylic acid (2-{4-[2-(6,7-dimethoxy-3,4-dihydro-1H-isoquinolin-2-yl)-ethoxy]-phenylcarbamoyl}-phenyl)-amide]",–,–,1.1,2.1,2.7,8,–,–
362,"COc1ccc(CN(C)Cc2ccc(NC(=O)c3ccccc3NC(=O)c3cccnc3)cc2)cc1OC(C)C [compound 9661, N-[2-(4-{[(3-Isopropoxy-4-methoxy-benzyl)-methyl-amino]-methyl}-phenylcarbamoyl)-phenyl]-nicotinamide]",–,–,1.2,38,71,195,–,–
